pIC50: −log10 of the molar value. “And” between values parts separate entries of the source, which are not always exact repeats. Identical values can stand only once.
Legend:
S. furcifera adults = assay: Y-tube olfactometer behavioral trials; format: in vivo, Sogatella furcifera; details: odorant 50 µL/L vs hexane; adults
Summary of the method: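 Single S. furcifera adults (2 days post-emergence, starved 0.5 h) chose between odorant (100 µL of 50 µL/L on filter paper) and hexane control in a glass Y-tube, charcoal-filtered humidified air 300 mL/min per arm, 25 ± 1 °C, 50% RH. Choice scored if insect passed half an arm and stayed >1 min within 10 min; 45 insects per compound, chi-squared test.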

SfurOBP11 = SfurOBP11 (Sogatella furcifera, UniProt V5T6E3); assay: biochemical; format: binding
Chain of SfurOBP11 (V5T6E3 entry or part of it): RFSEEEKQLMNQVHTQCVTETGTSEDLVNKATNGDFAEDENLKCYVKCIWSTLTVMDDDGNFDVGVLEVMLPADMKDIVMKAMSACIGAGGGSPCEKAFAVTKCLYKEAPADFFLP
Summary of the method: (§1)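 In 50 mM Tris-HCl pH 7.4, odorants displace 1-NPN (2.0 µM) from 2.0 µM protein. Emission at 390–490 nm under 337 nm excitation is measured 2 min after competitor addition, in triplicate. Ki is obtained from IC50 and the 1-NPN dissociation constant.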

SfurOBP3 = SfurOBP3 (Sogatella furcifera, UniProt V5T818); assay: biochemical; format: binding; details: for Fluorescence competitive binding assay, fluorescence intensity: OBP3, three replicate columns;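 as to Fluorescence competitive binding assay, fluorescence intensity: competitor odorant at 2 to 20 µM with protein and 1-NPN both 2.0 µM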
Chain of SfurOBP3 (V5T818 entry or part of it): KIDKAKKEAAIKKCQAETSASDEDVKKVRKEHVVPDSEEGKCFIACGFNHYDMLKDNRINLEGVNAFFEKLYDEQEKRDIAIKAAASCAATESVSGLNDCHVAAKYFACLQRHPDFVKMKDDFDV
Summary of the method: as §1

SfurOBP1 = SfurOBP1 (Sogatella furcifera, UniProt V5T8N5); assay: biochemical; format: binding; details: for Fluorescence competitive binding assay, fluorescence intensity: OBP1, three replicate columns
Chain of SfurOBP1 (V5T8N5 entry or part of it): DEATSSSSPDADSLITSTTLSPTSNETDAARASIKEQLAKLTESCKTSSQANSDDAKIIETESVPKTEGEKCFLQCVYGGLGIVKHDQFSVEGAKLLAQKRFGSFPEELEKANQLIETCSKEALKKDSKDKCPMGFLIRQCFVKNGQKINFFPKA
Summary of the method: as §1

SfurOBP2 = SfurOBP2 (Sogatella furcifera, UniProt V5T759); assay: biochemical; format: binding
Chain of SfurOBP2 (V5T759 entry or part of it): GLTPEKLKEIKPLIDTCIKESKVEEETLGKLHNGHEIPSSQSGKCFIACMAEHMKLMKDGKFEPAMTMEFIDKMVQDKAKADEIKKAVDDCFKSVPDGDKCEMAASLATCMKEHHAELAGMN
Summary of the method: as §1
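For Fluorescence competitive binding assay, fluorescence intensity in this document: competitor odorant at 2 to 20 µM with protein and 1-NPN both 2.0 µM.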

How did the “number of insects choosing hexane arm” value (S. furcifera adults) turn out when `CC/C=C\CCO` [(Z)-3-hexenol] was run?
The value was 13.

And the “number of insects choosing volatilies arm” value (S. furcifera adults)?
The value was 13.

And the “number of insects failed (no choice)” value (S. furcifera adults)?
Its value is 14.

And the pIC50 (SfurOBP11)?
The pIC50 was 4.71.

And the “Fluorescence intensity, fluorescence competitive binding assay, OBP11” value (shortened to “Fluorescence intensity … OBP11”) (SfurOBP11; ligand concentration 2, replicate 1)?
Its value is 23102.

And the “Fluorescence intensity … OBP11” value (SfurOBP11; ligand concentration 2, replicate 2)?
Its value is 23122.

What about the “Fluorescence intensity … OBP11” value (SfurOBP11; ligand concentration 2, replicate 3) of the same molecule?
The value was 23081.

And the “Fluorescence intensity … OBP11” value (SfurOBP11; ligand concentration 4, replicate 1)?
The value was 21959.

What about the “Fluorescence intensity … OBP11” value (SfurOBP11; ligand concentration 4, replicate 2) of the same molecule?
The value was 22135.

And the “Fluorescence intensity … OBP11” value (SfurOBP11; ligand concentration 4, replicate 3)?
The value was 21783.

What about the “Fluorescence intensity … OBP11” value (SfurOBP11; ligand concentration 6, replicate 1) of the same molecule?
The value was 21447.

What about the “Fluorescence intensity … OBP11” value (SfurOBP11; ligand concentration 6, replicate 2) of the same molecule?
The value was 20794.

And the “Fluorescence intensity … OBP11” value (SfurOBP11; ligand concentration 6, replicate 3)?
Its value is 21118.

What about the “Fluorescence intensity … OBP11” value (SfurOBP11; ligand concentration 8, replicate 1) of the same molecule?
Its value is 18781.

What about the “Fluorescence intensity … OBP11” value (SfurOBP11; ligand concentration 8, replicate 2) of the same molecule?
Its value is 21016.

And the “Fluorescence intensity … OBP11” value (SfurOBP11; ligand concentration 8, replicate 3)?
The value was 21554.

What about the “Fluorescence intensity … OBP11” value (SfurOBP11; ligand concentration 10, replicate 1) of the same molecule?
Its value is 18621.

What about the “Fluorescence intensity … OBP11” value (SfurOBP11; ligand concentration 10, replicate 2) of the same molecule?
The value was 21154.

What about the “Fluorescence intensity … OBP11” value (SfurOBP11; ligand concentration 10, replicate 3) of the same molecule?
Its value is 19973.

What about the “Fluorescence intensity … OBP11” value (SfurOBP11; ligand concentration 12, replicate 1) of the same molecule?
Its value is 17455.

And the “Fluorescence intensity … OBP11” value (SfurOBP11; ligand concentration 12, replicate 2)?
Its value is 20348.

What about the “Fluorescence intensity … OBP11” value (SfurOBP11; ligand concentration 12, replicate 3) of the same molecule?
The value was 19925.

And the “Fluorescence intensity … OBP11” value (SfurOBP11; ligand concentration 14, replicate 1)?
Its value is 17235.

And the “Fluorescence intensity … OBP11” value (SfurOBP11; ligand concentration 14, replicate 2)?
Its value is 18458.

What about the “Fluorescence intensity … OBP11” value (SfurOBP11; ligand concentration 14, replicate 3) of the same molecule?
Its value is 18680.

What about the “Fluorescence intensity … OBP11” value (SfurOBP11; ligand concentration 16, replicate 1) of the same molecule?
The value was 16257.

And the “Fluorescence intensity … OBP11” value (SfurOBP11; ligand concentration 16, replicate 2)?
Its value is 15961.

What about the “Fluorescence intensity … OBP11” value (SfurOBP11; ligand concentration 16, replicate 3) of the same molecule?
The value was 16778.

What about the “Fluorescence intensity … OBP11” value (SfurOBP11; ligand concentration 18, replicate 1) of the same molecule?
The value was 15893.

What about the “Fluorescence intensity … OBP11” value (SfurOBP11; ligand concentration 18, replicate 2) of the same molecule?
The value was 16090.

And the “Fluorescence intensity … OBP11” value (SfurOBP11; ligand concentration 18, replicate 3)?
Its value is 15799.

And the “Fluorescence intensity … OBP11” value (SfurOBP11; ligand concentration 20, replicate 1)?
Its value is 15616.

What about the “Fluorescence intensity … OBP11” value (SfurOBP11; ligand concentration 20, replicate 2) of the same molecule?
The value was 15707.

What about the “Fluorescence intensity … OBP11” value (SfurOBP11; ligand concentration 20, replicate 3) of the same molecule?
The value was 14975.

What about the pIC50 (SfurOBP3) of the same molecule?
The pIC50 was under 4.70.

And the “Fluorescence competitive binding assay, fluorescence intensity” value (SfurOBP3; ligand concentration 2)?
The value was 48626 and 49734 and 49512.

And the “Fluorescence competitive binding assay, fluorescence intensity” value (SfurOBP3; ligand concentration 4)?
The value was 45649 and 45958 and 42870.

What about the “Fluorescence competitive binding assay, fluorescence intensity” value (SfurOBP3; ligand concentration 6) of the same molecule?
The value was 41915 and 48260 and 45013.

And the “Fluorescence competitive binding assay, fluorescence intensity” value (SfurOBP3; ligand concentration 8)?
Its value is 45442 and 45656 and 45548.

What about the “Fluorescence competitive binding assay, fluorescence intensity” value (SfurOBP3; ligand concentration 10) of the same molecule?
Its value is 40904 and 43831 and 42892.

What about the “Fluorescence competitive binding assay, fluorescence intensity” value (SfurOBP3; ligand concentration 12) of the same molecule?
Its value is 41218 and 40601 and 40113.

What about the “Fluorescence competitive binding assay, fluorescence intensity” value (SfurOBP3; ligand concentration 14) of the same molecule?
Its value is 34957 and 35609 and 37985.

And the “Fluorescence competitive binding assay, fluorescence intensity” value (SfurOBP3; ligand concentration 16)?
Its value is 33728 and 34170 and 34618.

And the “Fluorescence competitive binding assay, fluorescence intensity” value (SfurOBP3; ligand concentration 18)?
The value was 37828 and 32491 and 33581.

And the “Fluorescence competitive binding assay, fluorescence intensity” value (SfurOBP3; ligand concentration 20)?
The value was 33910 and 32414 and 29949.

And the pIC50 (SfurOBP1)?
The pIC50 was under 4.70.

And the “Fluorescence competitive binding assay, fluorescence intensity” value (SfurOBP1; ligand concentration 2 (μM))?
Its value is 6275 and 5762 and 6097.

What about the “Fluorescence competitive binding assay, fluorescence intensity” value (SfurOBP1; ligand concentration 4 (μM)) of the same molecule?
The value was 7853 and 8652 and 8403.

And the “Fluorescence competitive binding assay, fluorescence intensity” value (SfurOBP1; ligand concentration 6 (μM))?
Its value is 6992 and 6382 and 6355.

What about the “Fluorescence competitive binding assay, fluorescence intensity” value (SfurOBP1; ligand concentration 8 (μM)) of the same molecule?
Its value is 6419 and 7196 and 6808.

What about the “Fluorescence competitive binding assay, fluorescence intensity” value (SfurOBP1; ligand concentration 10 (μM)) of the same molecule?
Its value is 6561 and 6490 and 6439.

And the “Fluorescence competitive binding assay, fluorescence intensity” value (SfurOBP1; ligand concentration 12 (μM))?
Its value is 6242 and 6220 and 5811.

And the “Fluorescence competitive binding assay, fluorescence intensity” value (SfurOBP1; ligand concentration 14 (μM))?
The value was 5437 and 6035 and 6831.

And the “Fluorescence competitive binding assay, fluorescence intensity” value (SfurOBP1; ligand concentration 16 (μM))?
Its value is 6974 and 6042 and 5510.

And the “Fluorescence competitive binding assay, fluorescence intensity” value (SfurOBP1; ligand concentration 18 (μM))?
The value was 6021 and 6159 and 6506.

What about the “Fluorescence competitive binding assay, fluorescence intensity” value (SfurOBP1; ligand concentration 20 (μM)) of the same molecule?
The value was 6648 and 5435 and 5963.

And the pIC50 (SfurOBP2)?
The pIC50 was under 4.70.

What about the “Fluorescence competitive binding assay, OBP2 (raw fluorescence reading)” value (SfurOBP2; ligand concentration 2 (unit not given), replicate column 1 of 3) of the same molecule?
The value was 19770.

And the “Fluorescence competitive binding assay, OBP2 (raw fluorescence reading)” value (SfurOBP2; ligand concentration 2 (unit not given), replicate column 2 of 3)?
Its value is 19248.

And the “Fluorescence competitive binding assay, OBP2 (raw fluorescence reading)” value (SfurOBP2; ligand concentration 2 (unit not given), replicate column 3 of 3)?
The value was 18506.

What about the “Fluorescence competitive binding assay, OBP2 (raw fluorescence reading)” value (SfurOBP2; ligand concentration 4 (unit not given), replicate column 1 of 3) of the same molecule?
The value was 19551.

What about the “Fluorescence competitive binding assay, OBP2 (raw fluorescence reading)” value (SfurOBP2; ligand concentration 4 (unit not given), replicate column 2 of 3) of the same molecule?
The value was 19781.

And the “Fluorescence competitive binding assay, OBP2 (raw fluorescence reading)” value (SfurOBP2; ligand concentration 4 (unit not given), replicate column 3 of 3)?
The value was 18404.

And the “Fluorescence competitive binding assay, OBP2 (raw fluorescence reading)” value (SfurOBP2; ligand concentration 6 (unit not given), replicate column 1 of 3)?
The value was 19561.

And the “Fluorescence competitive binding assay, OBP2 (raw fluorescence reading)” value (SfurOBP2; ligand concentration 6 (unit not given), replicate column 2 of 3)?
The value was 18769.

What about the “Fluorescence competitive binding assay, OBP2 (raw fluorescence reading)” value (SfurOBP2; ligand concentration 6 (unit not given), replicate column 3 of 3) of the same molecule?
The value was 17857.

And the “Fluorescence competitive binding assay, OBP2 (raw fluorescence reading)” value (SfurOBP2; ligand concentration 8 (unit not given), replicate column 1 of 3)?
Its value is 18896.

What about the “Fluorescence competitive binding assay, OBP2 (raw fluorescence reading)” value (SfurOBP2; ligand concentration 8 (unit not given), replicate column 2 of 3) of the same molecule?
Its value is 18816.

And the “Fluorescence competitive binding assay, OBP2 (raw fluorescence reading)” value (SfurOBP2; ligand concentration 8 (unit not given), replicate column 3 of 3)?
The value was 16878.

And the “Fluorescence competitive binding assay, OBP2 (raw fluorescence reading)” value (SfurOBP2; ligand concentration 10 (unit not given), replicate column 1 of 3)?
Its value is 17416.

And the “Fluorescence competitive binding assay, OBP2 (raw fluorescence reading)” value (SfurOBP2; ligand concentration 10 (unit not given), replicate column 2 of 3)?
Its value is 17439.

And the “Fluorescence competitive binding assay, OBP2 (raw fluorescence reading)” value (SfurOBP2; ligand concentration 10 (unit not given), replicate column 3 of 3)?
The value was 16747.

And the “Fluorescence competitive binding assay, OBP2 (raw fluorescence reading)” value (SfurOBP2; ligand concentration 12 (unit not given), replicate column 1 of 3)?
Its value is 16106.

What about the “Fluorescence competitive binding assay, OBP2 (raw fluorescence reading)” value (SfurOBP2; ligand concentration 12 (unit not given), replicate column 2 of 3) of the same molecule?
Its value is 16534.

What about the “Fluorescence competitive binding assay, OBP2 (raw fluorescence reading)” value (SfurOBP2; ligand concentration 12 (unit not given), replicate column 3 of 3) of the same molecule?
The value was 16305.

What about the “Fluorescence competitive binding assay, OBP2 (raw fluorescence reading)” value (SfurOBP2; ligand concentration 14 (unit not given), replicate column 1 of 3) of the same molecule?
The value was 14820.

And the “Fluorescence competitive binding assay, OBP2 (raw fluorescence reading)” value (SfurOBP2; ligand concentration 14 (unit not given), replicate column 2 of 3)?
The value was 14819.

What about the “Fluorescence competitive binding assay, OBP2 (raw fluorescence reading)” value (SfurOBP2; ligand concentration 14 (unit not given), replicate column 3 of 3) of the same molecule?
Its value is 14820.

And the “Fluorescence competitive binding assay, OBP2 (raw fluorescence reading)” value (SfurOBP2; ligand concentration 16 (unit not given), replicate column 1 of 3)?
Its value is 13168.

And the “Fluorescence competitive binding assay, OBP2 (raw fluorescence reading)” value (SfurOBP2; ligand concentration 16 (unit not given), replicate column 2 of 3)?
Its value is 12294.

What about the “Fluorescence competitive binding assay, OBP2 (raw fluorescence reading)” value (SfurOBP2; ligand concentration 16 (unit not given), replicate column 3 of 3) of the same molecule?
The value was 13106.

What about the “Fluorescence competitive binding assay, OBP2 (raw fluorescence reading)” value (SfurOBP2; ligand concentration 18 (unit not given), replicate column 1 of 3) of the same molecule?
Its value is 12788.

And the “Fluorescence competitive binding assay, OBP2 (raw fluorescence reading)” value (SfurOBP2; ligand concentration 18 (unit not given), replicate column 2 of 3)?
Its value is 12466.

And the “Fluorescence competitive binding assay, OBP2 (raw fluorescence reading)” value (SfurOBP2; ligand concentration 18 (unit not given), replicate column 3 of 3)?
Its value is 12554.

What about the “Fluorescence competitive binding assay, OBP2 (raw fluorescence reading)” value (SfurOBP2; ligand concentration 20 (unit not given), replicate column 1 of 3) of the same molecule?
Its value is 12993.

And the “Fluorescence competitive binding assay, OBP2 (raw fluorescence reading)” value (SfurOBP2; ligand concentration 20 (unit not given), replicate column 2 of 3)?
Its value is 12815.

And the “Fluorescence competitive binding assay, OBP2 (raw fluorescence reading)” value (SfurOBP2; ligand concentration 20 (unit not given), replicate column 3 of 3)?
The value was 12410.

— paper PMC6409085, “Three odorant-binding proteins are involved in the behavioral response of Sogatella furcifera to rice plant volatiles” (PeerJ, 2019)
